Test results taken from patent US5559141A, “Selective aromatase inhibiting 4(5)-imidazoles” (Orion-yhtyma Oy, priority 1991, dated 1996).
pIC50: −log10 of the molar value.

Assays:
desmolase = experiment: inhibition of cholesterol side chain cleavage (SCC) activity (desmolase); assay type: biochemical; conditions: mitochondrial fraction from human placenta or bovine adrenals, 37° C., 30 min; read-out: DESMOLASE IC-50
Protocol: Incubations were carried out in 1,5 ml Eppendorf plastic tubes, and an Eppendorf shaker, centrifuge and incubator were used as a unit. […] Controls contained all the above substances but the enzyme preparation was inactivated prior to the incubation by the addition of 900 μof methanol. The mitochondrial fraction (1 mg protein) from human placenta or bovine adrenals was used as a source of enzyme. After 30 min incubation at 37° C., the reaction was terminated by the addition of 900 μl of methanol; 1500 dpm of marker ^14 C-4-pregnenolone was added to each incubate and the tubes were vigorously shaken. […] The column was washed with one ml of 75% methanol and then with 3 ml of 80% methanol. The 80% methanol eluate was run into the counting vial and 10 ml of scintillation liquid was added. Radioactivity was counted using a double-label program on a liquid scintillation counter (LKB RackBeta). Typical activities for placental and bovine adrenal enzyme preparation were 0,5-3 and 50-100 pmol pregnenolone formed/mg protein/min,respectively.
In inhibition experiments, the substance (final concentration range from 1 to 1000 μM) was added into incubation mixture in a volume of 10-20 μl, usually as methanol or ethanol solution. The same volume of the solute was added into control incubation vial.

human aromatase = molecular target: T1, human aromatase (Homo sapiens, UniProt P11511); experiment: in vitro inhibition of aromatase (human placental microsomes, 3H2O release); assay type: biochemical; conditions: 37° C., 40 min, read-out: AROMATASE IC-50 (converted)
T1 construct: The enzyme was prepared from human placenta, which is rich of the enzyme; from tissue; host or cells: human placenta, microsomal fraction (100000×g precipitate), not further purified
T1 sequence (P11511 1-503): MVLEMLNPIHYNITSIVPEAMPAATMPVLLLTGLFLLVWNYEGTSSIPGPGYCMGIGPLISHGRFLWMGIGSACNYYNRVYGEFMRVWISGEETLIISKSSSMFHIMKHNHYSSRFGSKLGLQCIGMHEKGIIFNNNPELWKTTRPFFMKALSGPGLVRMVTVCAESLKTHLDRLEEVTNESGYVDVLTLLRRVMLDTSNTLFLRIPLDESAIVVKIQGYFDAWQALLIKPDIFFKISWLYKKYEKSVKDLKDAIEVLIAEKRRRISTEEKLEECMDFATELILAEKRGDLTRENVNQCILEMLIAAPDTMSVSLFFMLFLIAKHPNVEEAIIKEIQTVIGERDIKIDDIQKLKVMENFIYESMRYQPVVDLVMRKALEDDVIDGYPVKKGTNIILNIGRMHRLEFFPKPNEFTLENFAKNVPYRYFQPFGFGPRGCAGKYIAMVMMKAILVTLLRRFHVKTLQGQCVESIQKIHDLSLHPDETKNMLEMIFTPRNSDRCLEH
Protocol: Human aromatase enzyme was used. The enzyme was prepared from human placenta, which is rich of the enzyme. Microsomal fraction (100000×g precipitate) was prepared by centrifugation. The enzyme preparation was used without further purification. […] The incubation was camed out at 37° C. for 40 min. Aromatization of 1,2[^3 H]-androstene-3,17-dione results in the production of ^3 H2 O. The tritiated water and the tritiated substrate are easily separated by a Sep-Pak™ minicolumn, which absorbs the steroid but allows free water elution. Radioactivity was counted by a liquid scintillation counter. Aromatase inhibition was evaluated by comparing the ^3 H2 O-radioactivity of inhibitor treated samples to controls containing no inhibitor. IC-50 values were calculated as concentrations which inhibited the enzyme activity 50%.

[1] = acute toxicity, LD50, oral, mice; conditions: mouse, in vivo, young adult female NMRI-Stmin mice
Protocol: Acute toxicity, LD50, was determined by using young adult female mice of NMRI-Stmin. The administration of the test compounds was oral.

IC50 (human aromatase) [µM]	SMILES	pIC50 (desmolase)	LD50 [1] [mg/kg]
	N#Cc1ccc(C(CCCc2ccccc2)c2c[nH]cn2)cc1 (stereo not shown) [Compound 1b, 4-[1-(4-cyanophenyl)-4-phenylbutyl]-1H-imidazole]	4.92	
0.65	N#Cc1ccc(C(=CCc2c[nH]cn2)c2ccc(F)cc2)cc1 [Compound 4a, 4-[3-(4-cyanophenyl)-3-(4-fluorophenyl)-2-propenyl]-1H-imidazole]	4.21	
	N#Cc1ccc(C(=CCCc2ccc(F)cc2)c2c[nH]cn2)cc1 (single isomer, unassigned; isomer b) [Compound 5b, 4-[1-(4-cyanophenyl)-4-(4-fluorophenyl)-1-butenyl]-1H-imidazole, isomer b]	< 3.00	
1	N#Cc1ccc(CC=C(c2ccc(F)cc2)c2c[nH]cn2)cc1 [Compound 8b, 4-[3-(4-cyanophenyl)-1-(4-fluorophenyl)-1-propenyl]-1H-imidazole]		
	N#Cc1ccc(C(=CCc2ccc(F)cc2)c2c[nH]cn2)cc1 (single isomer, unassigned; isomer a) [Compound 6b, 4-[1-(4-cyanophenyl)-3-(4-fluorophenyl)-1-propenyl]-1H-imidazole, isomer a]	4.44	> 400
	N#Cc1ccc(C(=CCCc2ccc(F)cc2)c2c[nH]cn2)cc1 [Compound 3b, 4-[1-(4-cyanophenyl)-4-(4-fluorophenyl)-1-butenyl)-1H-imidazole]	4.59	
0.97	N#Cc1ccc(C(=CCc2c[nH]cn2)c2ccc(C#N)cc2)cc1 [Compound 8a, 4-[3,3-bis(4-cyanophenyl)-2-propenyl]-1H-imidazole]	4.48	
	COc1ccc(C(CCc2c[nH]cn2)c2ccc(C#N)cc2)cc1 (stereo not shown) [Compound 10a, 4-[3-(4-cyanophenyl)-3-(4-methoxyphenyl)propyl]-1H-imidazole]	4.48	
	N#Cc1ccc(C(CCc2c[nH]cn2)c2ccccc2)cc1 (stereo not shown) [Compound 1a, 4-[3-(4-cyanophenyl)-3-phenylpropyl]-1H-imidazole]	4.85	
	N#Cc1ccc(C(CCCc2ccc(F)cc2)c2c[nH]cn2)cc1 (stereo not shown) [Compound 2b, 4-[1-(4-cyanophenyl)-4-(4-fluorophenyl)butyl]-1H-imidazole]	4.70	
	N#Cc1ccc(C(CCCc2c[nH]cn2)c2ccc(C#N)cc2)cc1 [Compound 6a, 4-[4,4-bis(4-cyanophenyl)butyl]-1H-imidazole]	4.33	
3.2	N#Cc1ccc(C(=CCc2cncn2Cc2ccccc2)c2ccc(C#N)cc2)cc1 [Compound 5a, 1-benzyl-5-[3,3-bis(4-cyanophenyl)-2-propenyl]-1H-imidazole]		
	N#Cc1ccc(C(CCc2c[nH]cn2)c2ccc(C(F)(F)F)cc2)cc1 (stereo not shown) [Compound 9a, 4-[3-(4-cyanophenyl)-3-(4-trifluoromethylphenyl)propyl]-1H-imidazole]	4.19	
	N#Cc1ccc(C(CCc2c[nH]cn2)c2ccc(C#N)cc2)cc1 [Compound 2a, 4-[3,3-bis(4-cyanophenyl)propyl]-1H-imidazole]	4.44	
	N#Cc1ccc(C(=CCCc2ccc(F)cc2)c2c[nH]cn2)cc1 (single isomer, unassigned; isomer a) [Compound 4b, 4-[1-(4-cyanophenyl)-4-(4-fluorophenyl)-1-butenyl]-1H-imidazole, isomer a]	4.48	
5	N#Cc1ccc(C(CCCc2cncn2Cc2ccccc2)c2ccc(C#N)cc2)cc1 [Compound 7a, 1-benzyl-5-[4,4-bis(4-cyanophenyl)butyl]-1H-imidazole]	4.66	
	N#Cc1ccc(C(CCc2c[nH]cn2)c2ccc(F)cc2)cc1 (stereo not shown) [Compound 3a, 4-[3-(4-cyanophenyl)-3-(4-fluorophenyl)propyl]-1H-imidazole]	4.37	210
